Values of other authors as cited in PubChem BioAssay AID1259409 (Chemical Carcinogenesis Research Information System (CCRIS), 2018).
Several values for one entry are separate records, joined by “and”; a condition that tells them apart may be missing. Identical values can stand only once.

Test system: rodent chemically induced tumor inhibition, incidence and multiplicity
Assay: CCRIS tumor inhibitor studies

**Q.** With CCN(CC)C(=S)SSC(=S)N(CC)CC as the compound, how does the “tumour outcome (control, treated, inhibition, significance)” value (Carcinogen: 1,2-DIMETHYLHYDRAZINE, 540-73-8, Dose [Inhibitor]: 0, 500 MG/KG BW IN CORN OIL 5 D/WK FOR 20 WK BEGINNING 2 HR POST FIRST CARCINOGEN DOSE (STUDY DURATION: 18 MO), Route [Inhibitor]: GAVAGE, Species: RAT, Strain/Sex: WISTAR/MALE, Target Tissue: Type of Lesion: INTESTINE: TUMOR, Dose [Carcinogen]: 20 MG/KG BW 1/WK FOR 20 WK, Promoter: NONE USED) read?
**A.** 100%, 58%, 42%, not calculated

**Q.** What about the “tumour outcome (control, treated, inhibition, significance)” value (Carcinogen: 1,2-DIMETHYLHYDRAZINE, 540-73-8, Dose [Inhibitor]: 0, 500 MG/KG BW IN CORN OIL 5 D/WK FOR 20 WK BEGINNING 2 HR POST FIRST CARCINOGEN DOSE (STUDY DURATION: 18 MO), Route [Inhibitor]: GAVAGE, Species: RAT, Strain/Sex: WISTAR/MALE, Target Tissue: Type of Lesion: ZYMBAL GLAND: TUMOR, Dose [Carcinogen]: 20 MG/KG BW 1/WK FOR 20 WK, Promoter: NONE USED) of the same compound?
**A.** 52%, 4%, 92%, not calculated

**Q.** What about the “tumour outcome (control, treated, inhibition, significance)” value (Carcinogen: 1,2-DIMETHYLHYDRAZINE, 540-73-8, Dose [Inhibitor]: 0, 500 MG/KG BW IN CORN OIL 5 D/WK FOR 20 WK BEGINNING 15 D PRIOR TO CARCINOGEN TREATMENT (STUDY DURATION: 18 MO), Route [Inhibitor]: GAVAGE, Species: RAT, Strain/Sex: WISTAR/MALE, Target Tissue: Type of Lesion: INTESTINE: TUMOR, Dose [Carcinogen]: 20 MG/KG BW 1/WK FOR 20 WK, Promoter: NONE USED) of the same compound?
**A.** 100%, 0%, 100%, not calculated

**Q.** What about the “tumour outcome (control, treated, inhibition, significance)” value (Carcinogen: 1,2-DIMETHYLHYDRAZINE, 540-73-8, Dose [Inhibitor]: 0, 500 MG/KG BW IN CORN OIL 5 D/WK FOR 20 WK BEGINNING 15 D PRIOR TO CARCINOGEN TREATMENT (STUDY DURATION: 18 MO), Route [Inhibitor]: GAVAGE, Species: RAT, Strain/Sex: WISTAR/MALE, Target Tissue: Type of Lesion: ZYMBAL GLAND: TUMOR, Dose [Carcinogen]: 20 MG/KG BW 1/WK FOR 20 WK, Promoter: NONE USED) of the same compound?
**A.** 68%, 0%, 100%, not calculated

**Q.** And the “tumour outcome (control, treated, inhibition, significance)” value (Carcinogen: 1,2-DIMETHYLHYDRAZINE, 540-73-8, Dose [Inhibitor]: 5 MG/G IN DIET FOR 17 WK BEGINNING 8 D PRIOR TO CARCINOGEN (STUDY DURATION: 36 WK), Route [Inhibitor]: ORAL, Species: MOUSE, Strain/Sex: C-F1/FEMALE, Target Tissue: Type of Lesion: LARGE INTESTINE: TUMOR, Dose [Carcinogen]: 0.7 MG IN 0.2 ML EDTA SOLUTION 1/WK FOR 16 WK, Promoter: NONE USED)?
**A.** 14/14 (100%), 0/20 (0%), 100%, not calculated

**Q.** And the “tumour outcome (control, treated, inhibition, significance)” value (Carcinogen: 7,12-DIMETHYLBENZ[A]ANTHRACENE, 57-97-6, Dose [Inhibitor]: 0.03 NMOL/G DIET DAILY FOR 17 WK STARTING 1 WK PRIOR TO CARCINOGEN TREATMENT AND CONTINUING THROUGH THE END OF THE STUDY, Route [Inhibitor]: ORAL, Species: RAT, Strain/Sex: SPRAGUE-DAWLEY/FEMALE, Target Tissue: Type of Lesion: MAMMARY GLAND: TUMOR, Dose [Carcinogen]: 12 MG IN 1 ML OLIVE OIL ONCE, Promoter: NONE USED)?
**A.** 61%, 22%, 64%, p<0.05 and 79%, 8%, 90%, p<0.001

**Q.** What about the “tumour outcome (control, treated, inhibition, significance)” value (Carcinogen: 7,12-DIMETHYLBENZ[A]ANTHRACENE, 57-97-6, Dose [Inhibitor]: 100 MG IN 1 ML CARBOWAX 400 SOLUTION ONCE 24 HR BEFORE CARCINOGEN TREATMENT FOLLOWED BY 16 WK OBSERVATION PERIOD (STUDY, Route [Inhibitor]: GAVAGE, Species: RAT, Strain/Sex: SPRAGUE-DAWLEY/FEMALE, Target Tissue: Type of Lesion: MAMMARY GLAND: TUMOR, Dose [Carcinogen]: 12 MG IN 1 ML OLIVE OIL ONCE, Promoter: NONE USED) of the same compound?
**A.** 59%, 11%, 81%, p<0.01

**Q.** And the “tumour outcome (control, treated, inhibition, significance)” value (Carcinogen: BENZO[A]PYENE, 50-32-8, Dose [Inhibitor]: 0.03 MMOL/G DIET DAILY FOR 6 WK CONCURRENT WITH CARCINOGEN TREATMENT FOLLOWED BY 14 WK ON STANDARD DIET (STUDY DURATION:, Route [Inhibitor]: ORAL, Species: MOUSE, Strain/Sex: ICR/FEMALE, Target Tissue: Type of Lesion: FORESTOMACH: NEOPLASM, Dose [Carcinogen]: 0.3 MG/G IN DIET DAILY FOR 6 WK, Promoter: NONE USED)?
**A.** 40%, 0%, 100%, not calculated

**Q.** And the “tumour outcome (control, treated, inhibition, significance)” value (Carcinogen: BENZO[A]PYENE, 50-32-8, Dose [Inhibitor]: 0.03 MMOL/G DIET DAILY FOR 25 D STARTING 7 D PRIOR TO FIRST CARCINOGEN DOSE AND THEN PLACED ON STANDARD DIET THROUGH THE, Route [Inhibitor]: ORAL, Species: MOUSE, Strain/Sex: STRAIN-A/FEMALE, Target Tissue: Type of Lesion: LUNG: ADENOMA, Dose [Carcinogen]: 3 MG IN 0.5 ML SESAME OIL ADMINISTERED 7 AND 21 D AFTER START OF AGENT, Promoter: NONE USED)?
**A.** 12/12 (100%), 12/12 (100%), 0%, not significant

**Q.** What about the “tumour outcome (control, treated, inhibition, significance)” value (Carcinogen: BRACKEN FERN, Dose [Inhibitor]: 5 MG/G DIET, DAILY FOR 12 MO SIMULTANEOUS WITH CARCINOGEN (STUDY DURATION: 12 MO), Route [Inhibitor]: ORAL, Species: RAT, Strain/Sex: ALBINO/?, Target Tissue: Type of Lesion: INTESTINE: TUMOR, Dose [Carcinogen]: 0.33 G IN DIET DAILY FOR 12 MO, Promoter: NONE USED) of the same compound?
**A.** 30/30 (100%), 12/16 (75%), 25%, p<0.01

**Q.** And the “tumour outcome (control, treated, inhibition, significance)” value (Carcinogen: BRACKEN FERN, Dose [Inhibitor]: 5 MG/G DIET, DAILY FOR 12 MO SIMULTANEOUS WITH CARCINOGEN (STUDY DURATION: 12 MO), Route [Inhibitor]: ORAL, Species: RAT, Strain/Sex: ALBINO/?, Target Tissue: Type of Lesion: URINARY BLADDER: TUMOR, Dose [Carcinogen]: 0.33 G IN DIET, DAILY FOR 12 MO, Promoter: NONE USED)?
**A.** 22/30 (73%), 10/16 (62%), 15%, not significant

**Q.** And the “tumour outcome (control, treated, inhibition, significance)” value (Carcinogen: TRANS-5-AMINO-3-[2-(5-NITRO-2-FURYL)VINYL]-1,2,4-OXADIAZOLE;SQL8506, 28754-68-9, Carcinogen: TRANS-5-AMINO-3-[2-(5-NITRO-2-FURYL)VINYL]-1,2,4-OXADIAZOLE;SQL8506, 28754-68-9, Dose [Inhibitor]: 1% IN DIET DAILY FOR 11 D BEGINNING 3 D BEFORE, DURING AND 3 D AFTER EACH OF 3 CARCINOGEN TREATMENTS (STUDY DURATION: LI, Route [Inhibitor]: ORAL, Species: MOUSE, Strain/Sex: CD-1/FEMALE, Target Tissue: Type of Lesion: HEMATOPOIETIC SYSTEM: MYELOID LEUKEMIA, Dose [Carcinogen]: 1 G/KG 2/D FOR 5 D EVERY 4 WK FOR 3 COURSES OF TREATMENT, Promoter: NONE USED)?
**A.** 7/137 (5%), 0/34 (0%), 100%, not calculated

**Q.** And the “tumour outcome (control, treated, inhibition, significance)” value (Carcinogen: TRANS-5-AMINO-3-[2-(5-NITRO-2-FURYL)VINYL]-1,2,4-OXADIAZOLE;SQL8506, 28754-68-9, Carcinogen: TRANS-5-AMINO-3-[2-(5-NITRO-2-FURYL)VINYL]-1,2,4-OXADIAZOLE;SQL8506, 28754-68-9, Dose [Inhibitor]: 1% IN DIET DAILY FOR 11 D BEGINNING 3 D BEFORE, DURING AND 3 D AFTER EACH OF 3 CARCINOGEN TREATMENTS (STUDY DURATION: LI, Route [Inhibitor]: ORAL, Species: MOUSE, Strain/Sex: CD-1/FEMALE, Target Tissue: Type of Lesion: LYMPHOID TISSUE: NONTHYMIC LYMPHOMA, Dose [Carcinogen]: 1 G/KG 2/D FOR 5 D EVERY 4 WK FOR 3 COURSES OF TREATMENT, Promoter: NONE USED)?
**A.** 8/137 (6%), 0/34 (0%), 100%, not calculated

**Q.** And the “tumour outcome (control, treated, inhibition, significance)” value (Carcinogen: TRANS-5-AMINO-3-[2-(5-NITRO-2-FURYL)VINYL]-1,2,4-OXADIAZOLE;SQL8506, 28754-68-9, Carcinogen: TRANS-5-AMINO-3-[2-(5-NITRO-2-FURYL)VINYL]-1,2,4-OXADIAZOLE;SQL8506, 28754-68-9, Dose [Inhibitor]: 1% IN DIET DAILY FOR 11 D BEGINNING 3 D BEFORE, DURING AND 3 D AFTER TREATMENT EACH OF 3 CARCINOGEN TREATMENTS (STUDY DU, Route [Inhibitor]: ORAL, Species: MOUSE, Strain/Sex: CD-1/FEMALE, Target Tissue: Type of Lesion: STOMACH: SQUAMOUS CARCINOMA, Dose [Carcinogen]: 1 G/KG 2/D FOR 5 D EVERY 4 WK FOR 3 COURSES OF TREATMENT, Promoter: NONE USED)?
**A.** 60/137 (44%), 12/34 (35%), 20%, not calculated

**Q.** And the “tumour outcome (control, treated, inhibition, significance)” value (Carcinogen: URETHANE, 51-79-6, Dose [Inhibitor]: 0, 500 MG/KG IN CORN OIL AT 24 HR AND 1 HR PRIOR TO CARCINOGEN DOSE (STUDY DURATION: 4 MO), Route [Inhibitor]: GAVAGE, Species: MOUSE, Strain/Sex: BALB/MALE, FEMALE, Target Tissue: Type of Lesion: LUNG: TUMOR, Dose [Carcinogen]: 1 G/KG IN 0.9% SALINE ONCE, Promoter: NONE USED)?
**A.** 100%, 63%, 37%, not significant

**Q.** And the “tumour outcome (control, treated, inhibition, significance)” value (Carcinogen: URETHANE, 51-79-6, Dose [Inhibitor]: 0, 500 MG/KG IN CORN OIL FOR 4 D BEGINNING 4 D POST CARCINOGEN DOSE (STUDY DURATION: 4 MO), Route [Inhibitor]: GAVAGE, Species: MOUSE, Strain/Sex: BALB/MALE, FEMALE, Target Tissue: Type of Lesion: LUNG: TUMOR, Dose [Carcinogen]: 1 G/KG IN 0.9% SALINE ONCE, Promoter: NONE USED)?
**A.** 100%, 94%, 6%, not significant

**Q.** Which “tumour outcome (control, treated, inhibition, significance)” value (Dose [Inhibitor]: 0, 1 MG/KG IN 0.1 M PHOSPHATE BUFFER 5 D/WK FOR 105 WK (STUDY DURATION: 105 EK), Route [Inhibitor]: GAVAGE, Species: MOUSE, Strain/Sex: B6C3F1/MALE, Target Tissue: Type of Lesion: LIVER: HEPATOCELLULAR ADENOMA OR CARCINOMA) does the source give for C=C1C/C(=C/C)C(=O)O[C@@H]2CCN3CC=C(COC(=O)[C@@]1(O)CO)[C@H]23 here?
**A.** 36/50 (72%), 23/50 (46%), 36%, p<0.05

**Q.** And the “tumour outcome (control, treated, inhibition, significance)” value (Dose [Inhibitor]: 0, 3 MG/KG IN 0.1 M PHOSPHATE BUFFER 5 D/WK FOR 105 WK (STUDY DURATION: 105 WK), Route [Inhibitor]: GAVAGE, Species: MOUSE, Strain/Sex: B6C3F1/FEMALE, Target Tissue: Type of Lesion: LIVER: HEPATOCELLULAR ADENOMA OR CARCINOMA)?
**A.** 16/49 (33%), 0/50 (0%), 100%, p<0.01
